Test results: ChEMBL document CHEMBL1201862, “PubChem BioAssay data set” (2004)
The source made the active and inactive calls.

Columns and labels:
[1] = A Cell Based Secondary Assay To Explore Cytotoxicity of Compounds that Sensitize Mycobacterium Tuberculosis to Beta-Lactam Antibiotics.; assay type: functional
[2] = biological target: T1, Aspartyl aminopeptidase (Plasmodium falciparum 3D7, UniProt Q8I2J3); assay: Counterscreen for inhibitors of M1 and M17 aminopeptidases: QFRET-based biochemical high throughput dose response assay for inhibitors of the Plasmodium falciparum M18 Aspartyl Aminopeptidase (PFM18AAP). [Related PubChem assays: 1619 (Screening assay (M17LAP inhibitors).), 1445 (Screening assay (M1AAP inhibitors).)]
T1 sequence (Q8I2J3 whole entry): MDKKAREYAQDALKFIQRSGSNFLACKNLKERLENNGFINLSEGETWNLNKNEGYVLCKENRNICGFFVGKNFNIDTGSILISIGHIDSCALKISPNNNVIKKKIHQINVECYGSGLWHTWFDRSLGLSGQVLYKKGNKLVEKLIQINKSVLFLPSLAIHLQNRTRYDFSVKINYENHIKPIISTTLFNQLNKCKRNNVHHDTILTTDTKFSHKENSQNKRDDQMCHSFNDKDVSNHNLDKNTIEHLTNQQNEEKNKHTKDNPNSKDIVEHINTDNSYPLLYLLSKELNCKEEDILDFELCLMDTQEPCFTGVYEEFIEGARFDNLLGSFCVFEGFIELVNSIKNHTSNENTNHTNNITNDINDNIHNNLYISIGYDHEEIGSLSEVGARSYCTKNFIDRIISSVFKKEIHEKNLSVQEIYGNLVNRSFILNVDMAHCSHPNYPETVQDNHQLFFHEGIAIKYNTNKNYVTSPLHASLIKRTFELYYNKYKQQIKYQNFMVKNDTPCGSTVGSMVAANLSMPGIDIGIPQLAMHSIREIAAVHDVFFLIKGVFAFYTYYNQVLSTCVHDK

[3] = biological target: Procathepsin L (Homo sapiens, UniProt P07711); assay: CTSL1 protease inhibition – biochemical, QFRET, 1536-well, counter-screen for M1/M17 aminopeptidase inhibitor project, dose response (AID 2214)
Procathepsin L, sequence (P07711 whole entry): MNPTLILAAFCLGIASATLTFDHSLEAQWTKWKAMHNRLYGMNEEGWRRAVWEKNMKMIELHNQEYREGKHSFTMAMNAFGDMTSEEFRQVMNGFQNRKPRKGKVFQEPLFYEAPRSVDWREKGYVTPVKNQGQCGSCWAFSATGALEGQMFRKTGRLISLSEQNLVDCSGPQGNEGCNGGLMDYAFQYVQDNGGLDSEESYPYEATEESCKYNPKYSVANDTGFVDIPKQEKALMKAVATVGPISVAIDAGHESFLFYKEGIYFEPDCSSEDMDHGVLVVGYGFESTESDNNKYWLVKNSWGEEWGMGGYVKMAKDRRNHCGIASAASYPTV

[4] = biological target: T2, Aminopeptidase N (Plasmodium falciparum FcB1/Columbia, UniProt O96935); assay: malaria alanyl aminopeptidase activity blockers – biochemical, fluorogenic H-Leu-NHMec substrate, 1536-well (AID 1445); set-up: species or system Plasmodium falciparum 3D7, 3D7
T2 sequence (O96935 whole entry): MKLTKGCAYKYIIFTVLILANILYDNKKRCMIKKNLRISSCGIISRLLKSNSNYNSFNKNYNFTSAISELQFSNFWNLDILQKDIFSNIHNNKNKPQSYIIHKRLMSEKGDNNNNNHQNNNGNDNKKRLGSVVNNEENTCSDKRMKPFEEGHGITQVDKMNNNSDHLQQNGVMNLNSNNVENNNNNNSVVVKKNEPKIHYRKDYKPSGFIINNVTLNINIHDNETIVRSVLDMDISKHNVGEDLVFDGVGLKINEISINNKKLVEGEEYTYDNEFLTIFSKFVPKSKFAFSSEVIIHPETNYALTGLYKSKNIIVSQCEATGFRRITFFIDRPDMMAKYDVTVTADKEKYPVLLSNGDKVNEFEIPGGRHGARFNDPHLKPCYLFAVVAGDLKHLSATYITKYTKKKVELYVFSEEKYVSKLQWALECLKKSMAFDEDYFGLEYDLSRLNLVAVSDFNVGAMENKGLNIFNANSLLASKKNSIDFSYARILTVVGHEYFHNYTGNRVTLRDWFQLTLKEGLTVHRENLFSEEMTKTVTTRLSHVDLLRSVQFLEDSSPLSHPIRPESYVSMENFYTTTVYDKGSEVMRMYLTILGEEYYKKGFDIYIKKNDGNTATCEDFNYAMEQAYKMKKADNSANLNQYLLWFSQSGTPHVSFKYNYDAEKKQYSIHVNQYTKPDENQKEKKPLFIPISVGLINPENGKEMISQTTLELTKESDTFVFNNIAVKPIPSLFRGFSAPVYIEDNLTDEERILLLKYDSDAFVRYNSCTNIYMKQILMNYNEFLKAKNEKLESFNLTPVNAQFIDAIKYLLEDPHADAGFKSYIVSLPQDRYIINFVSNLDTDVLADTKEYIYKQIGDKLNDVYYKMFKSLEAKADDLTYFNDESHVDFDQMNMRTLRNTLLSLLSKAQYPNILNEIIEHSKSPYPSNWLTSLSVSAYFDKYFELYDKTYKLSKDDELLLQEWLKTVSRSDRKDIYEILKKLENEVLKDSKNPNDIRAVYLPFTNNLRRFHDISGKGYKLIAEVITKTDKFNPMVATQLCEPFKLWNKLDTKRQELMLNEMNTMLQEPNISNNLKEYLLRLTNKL

[5] = viability of uninfected HEp-2 cells – cell-based, HTS, cytotoxicity control for RSV inhibitor project, dose response (AID 2410); assay type: functional; settings: human respiratory syncytial virus
[6] = cells
[7] = biological target: T3, High affinity choline transporter 1 (Homo sapiens, UniProt Q9GZV3); assay: human choline transporter blockers, potency – cell-based, 5-point CRC, membrane potential dye, dose response (AID 504840); assay type: functional
T3 sequence (Q9GZV3 whole entry): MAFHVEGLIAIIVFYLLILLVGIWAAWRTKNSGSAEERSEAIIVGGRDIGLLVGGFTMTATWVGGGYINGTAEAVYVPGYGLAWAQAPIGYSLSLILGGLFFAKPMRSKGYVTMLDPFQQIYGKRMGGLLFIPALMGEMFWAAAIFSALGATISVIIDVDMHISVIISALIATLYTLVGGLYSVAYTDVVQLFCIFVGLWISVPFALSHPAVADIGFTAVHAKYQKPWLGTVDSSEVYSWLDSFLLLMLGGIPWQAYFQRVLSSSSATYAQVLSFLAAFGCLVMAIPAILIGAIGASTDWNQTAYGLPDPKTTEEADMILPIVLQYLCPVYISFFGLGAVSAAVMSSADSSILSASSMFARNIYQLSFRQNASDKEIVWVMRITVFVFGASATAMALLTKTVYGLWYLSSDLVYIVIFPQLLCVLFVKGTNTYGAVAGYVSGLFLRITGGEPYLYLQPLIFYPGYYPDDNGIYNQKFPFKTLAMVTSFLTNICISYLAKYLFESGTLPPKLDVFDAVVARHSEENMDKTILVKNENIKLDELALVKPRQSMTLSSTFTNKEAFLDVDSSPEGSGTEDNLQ

[8] = biological target: Cytochrome P450 2D6 (Homo sapiens, UniProt P10635);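 also: CYP2D6 member of a cytochrome P450 panel assay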
Cytochrome P450 2D6, sequence (P10635 whole entry): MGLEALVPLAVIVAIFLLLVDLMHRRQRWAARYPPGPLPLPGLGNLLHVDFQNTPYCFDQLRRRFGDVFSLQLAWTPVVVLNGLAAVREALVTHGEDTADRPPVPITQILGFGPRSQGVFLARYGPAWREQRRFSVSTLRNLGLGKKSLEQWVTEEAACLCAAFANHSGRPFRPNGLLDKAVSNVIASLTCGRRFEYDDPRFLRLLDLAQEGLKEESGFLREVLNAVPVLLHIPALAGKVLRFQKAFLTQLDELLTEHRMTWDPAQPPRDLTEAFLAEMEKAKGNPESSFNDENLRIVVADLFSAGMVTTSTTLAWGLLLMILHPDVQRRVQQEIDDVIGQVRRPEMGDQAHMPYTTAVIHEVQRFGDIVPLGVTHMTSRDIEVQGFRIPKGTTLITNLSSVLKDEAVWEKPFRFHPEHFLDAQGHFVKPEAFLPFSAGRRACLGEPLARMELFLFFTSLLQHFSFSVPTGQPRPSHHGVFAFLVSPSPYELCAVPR

[9] = biological target: T4, Leucine aminopeptidase (Plasmodium falciparum 3D7, UniProt Q8IL11); assay: P. falciparum M17LAP inhibitors, primary screen, biochemical, fluorogenic H-Leu-NHMec substrate, 1536-well (AID 1619); assay type: functional
T4 sequence (Q8IL11 whole entry): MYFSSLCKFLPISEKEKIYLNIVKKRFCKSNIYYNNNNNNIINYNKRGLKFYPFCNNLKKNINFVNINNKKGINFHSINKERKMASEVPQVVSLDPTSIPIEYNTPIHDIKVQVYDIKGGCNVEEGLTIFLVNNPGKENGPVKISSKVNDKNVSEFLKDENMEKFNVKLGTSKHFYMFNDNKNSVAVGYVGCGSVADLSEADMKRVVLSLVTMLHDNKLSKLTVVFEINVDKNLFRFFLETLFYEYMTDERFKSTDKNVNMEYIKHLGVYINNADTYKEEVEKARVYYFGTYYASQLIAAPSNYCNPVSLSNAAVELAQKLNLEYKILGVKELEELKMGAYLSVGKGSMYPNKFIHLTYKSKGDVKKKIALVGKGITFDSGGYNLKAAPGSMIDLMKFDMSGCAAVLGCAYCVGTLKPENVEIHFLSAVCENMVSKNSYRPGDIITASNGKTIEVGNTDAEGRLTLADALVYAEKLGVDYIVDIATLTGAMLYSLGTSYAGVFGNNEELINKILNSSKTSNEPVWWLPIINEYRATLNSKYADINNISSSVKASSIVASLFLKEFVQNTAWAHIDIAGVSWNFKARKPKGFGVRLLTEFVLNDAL

[10] = biological target: Peroxisome proliferator-activated receptor gamma/Nuclear receptor coactivator 3 (Homo sapiens, UniProt P37231); assay type: functional;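 also: agonist potency for raising coactivator recruitment to the receptor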
Peroxisome proliferator-activated receptor gamma/Nuclear receptor coactivator 3, sequence (P37231 whole entry): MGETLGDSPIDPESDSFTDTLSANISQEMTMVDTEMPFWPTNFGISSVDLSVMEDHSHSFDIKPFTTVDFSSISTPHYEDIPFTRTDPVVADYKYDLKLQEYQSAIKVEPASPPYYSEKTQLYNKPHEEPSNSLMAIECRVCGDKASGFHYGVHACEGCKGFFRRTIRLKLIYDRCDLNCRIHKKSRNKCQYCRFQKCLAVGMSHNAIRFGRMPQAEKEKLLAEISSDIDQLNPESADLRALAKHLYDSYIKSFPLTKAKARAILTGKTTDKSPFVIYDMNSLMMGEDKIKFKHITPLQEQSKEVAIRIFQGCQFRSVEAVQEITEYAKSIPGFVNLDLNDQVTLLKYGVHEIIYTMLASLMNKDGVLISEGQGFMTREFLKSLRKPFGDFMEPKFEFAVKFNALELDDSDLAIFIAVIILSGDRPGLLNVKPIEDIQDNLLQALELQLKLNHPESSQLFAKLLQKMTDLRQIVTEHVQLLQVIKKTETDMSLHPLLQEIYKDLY
Peroxisome proliferator-activated receptor gamma/Nuclear receptor coactivator 3, sequence (Q9Y6Q9 whole entry, further chain): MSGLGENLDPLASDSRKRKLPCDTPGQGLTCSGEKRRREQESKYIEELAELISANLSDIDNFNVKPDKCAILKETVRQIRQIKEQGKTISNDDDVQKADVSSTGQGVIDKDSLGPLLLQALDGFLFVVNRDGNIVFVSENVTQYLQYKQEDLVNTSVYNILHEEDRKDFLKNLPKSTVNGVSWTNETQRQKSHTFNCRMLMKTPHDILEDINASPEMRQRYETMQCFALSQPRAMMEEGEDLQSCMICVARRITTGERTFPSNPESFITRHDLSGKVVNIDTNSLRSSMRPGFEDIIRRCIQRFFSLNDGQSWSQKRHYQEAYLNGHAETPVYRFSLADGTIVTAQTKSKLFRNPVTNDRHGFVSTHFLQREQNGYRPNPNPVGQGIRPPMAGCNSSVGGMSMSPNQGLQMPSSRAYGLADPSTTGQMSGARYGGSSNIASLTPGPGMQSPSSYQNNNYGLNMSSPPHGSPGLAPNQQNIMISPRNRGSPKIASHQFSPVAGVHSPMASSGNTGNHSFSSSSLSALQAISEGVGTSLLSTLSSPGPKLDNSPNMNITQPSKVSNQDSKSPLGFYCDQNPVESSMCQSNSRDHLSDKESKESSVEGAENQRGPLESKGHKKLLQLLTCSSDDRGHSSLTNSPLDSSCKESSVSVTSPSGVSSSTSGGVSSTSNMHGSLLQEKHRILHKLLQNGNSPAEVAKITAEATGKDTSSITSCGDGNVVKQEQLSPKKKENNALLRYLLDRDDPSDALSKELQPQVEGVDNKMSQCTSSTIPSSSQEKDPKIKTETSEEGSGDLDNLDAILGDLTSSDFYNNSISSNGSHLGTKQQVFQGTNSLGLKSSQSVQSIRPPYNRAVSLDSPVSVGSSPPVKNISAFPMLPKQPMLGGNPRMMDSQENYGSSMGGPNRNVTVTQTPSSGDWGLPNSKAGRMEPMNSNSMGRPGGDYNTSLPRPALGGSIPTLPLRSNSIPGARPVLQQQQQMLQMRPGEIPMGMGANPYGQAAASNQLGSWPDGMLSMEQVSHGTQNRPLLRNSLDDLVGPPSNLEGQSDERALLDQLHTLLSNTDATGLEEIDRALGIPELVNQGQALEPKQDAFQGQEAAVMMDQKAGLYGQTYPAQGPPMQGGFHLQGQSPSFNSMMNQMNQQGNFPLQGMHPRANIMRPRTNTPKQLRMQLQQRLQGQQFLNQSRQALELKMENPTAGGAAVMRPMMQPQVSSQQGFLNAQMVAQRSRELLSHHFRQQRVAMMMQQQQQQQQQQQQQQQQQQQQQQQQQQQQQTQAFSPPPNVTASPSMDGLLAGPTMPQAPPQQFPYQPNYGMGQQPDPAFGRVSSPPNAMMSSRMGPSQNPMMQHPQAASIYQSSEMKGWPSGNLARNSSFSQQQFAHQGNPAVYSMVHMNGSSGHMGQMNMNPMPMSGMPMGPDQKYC

[11] = biological target: Peroxisome proliferator-activated receptor gamma/Nuclear receptor coactivator 1 (Homo sapiens, UniProt P37231); assay type: functional;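 also: agonist potency as compounds enhance coactivator SRC-1 recruitment to PPARgamma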
Peroxisome proliferator-activated receptor gamma/Nuclear receptor coactivator 1, sequence (P37231 whole entry): as the sequence (P37231 whole entry) above
Peroxisome proliferator-activated receptor gamma/Nuclear receptor coactivator 1, sequence (Q15788 whole entry, further chain): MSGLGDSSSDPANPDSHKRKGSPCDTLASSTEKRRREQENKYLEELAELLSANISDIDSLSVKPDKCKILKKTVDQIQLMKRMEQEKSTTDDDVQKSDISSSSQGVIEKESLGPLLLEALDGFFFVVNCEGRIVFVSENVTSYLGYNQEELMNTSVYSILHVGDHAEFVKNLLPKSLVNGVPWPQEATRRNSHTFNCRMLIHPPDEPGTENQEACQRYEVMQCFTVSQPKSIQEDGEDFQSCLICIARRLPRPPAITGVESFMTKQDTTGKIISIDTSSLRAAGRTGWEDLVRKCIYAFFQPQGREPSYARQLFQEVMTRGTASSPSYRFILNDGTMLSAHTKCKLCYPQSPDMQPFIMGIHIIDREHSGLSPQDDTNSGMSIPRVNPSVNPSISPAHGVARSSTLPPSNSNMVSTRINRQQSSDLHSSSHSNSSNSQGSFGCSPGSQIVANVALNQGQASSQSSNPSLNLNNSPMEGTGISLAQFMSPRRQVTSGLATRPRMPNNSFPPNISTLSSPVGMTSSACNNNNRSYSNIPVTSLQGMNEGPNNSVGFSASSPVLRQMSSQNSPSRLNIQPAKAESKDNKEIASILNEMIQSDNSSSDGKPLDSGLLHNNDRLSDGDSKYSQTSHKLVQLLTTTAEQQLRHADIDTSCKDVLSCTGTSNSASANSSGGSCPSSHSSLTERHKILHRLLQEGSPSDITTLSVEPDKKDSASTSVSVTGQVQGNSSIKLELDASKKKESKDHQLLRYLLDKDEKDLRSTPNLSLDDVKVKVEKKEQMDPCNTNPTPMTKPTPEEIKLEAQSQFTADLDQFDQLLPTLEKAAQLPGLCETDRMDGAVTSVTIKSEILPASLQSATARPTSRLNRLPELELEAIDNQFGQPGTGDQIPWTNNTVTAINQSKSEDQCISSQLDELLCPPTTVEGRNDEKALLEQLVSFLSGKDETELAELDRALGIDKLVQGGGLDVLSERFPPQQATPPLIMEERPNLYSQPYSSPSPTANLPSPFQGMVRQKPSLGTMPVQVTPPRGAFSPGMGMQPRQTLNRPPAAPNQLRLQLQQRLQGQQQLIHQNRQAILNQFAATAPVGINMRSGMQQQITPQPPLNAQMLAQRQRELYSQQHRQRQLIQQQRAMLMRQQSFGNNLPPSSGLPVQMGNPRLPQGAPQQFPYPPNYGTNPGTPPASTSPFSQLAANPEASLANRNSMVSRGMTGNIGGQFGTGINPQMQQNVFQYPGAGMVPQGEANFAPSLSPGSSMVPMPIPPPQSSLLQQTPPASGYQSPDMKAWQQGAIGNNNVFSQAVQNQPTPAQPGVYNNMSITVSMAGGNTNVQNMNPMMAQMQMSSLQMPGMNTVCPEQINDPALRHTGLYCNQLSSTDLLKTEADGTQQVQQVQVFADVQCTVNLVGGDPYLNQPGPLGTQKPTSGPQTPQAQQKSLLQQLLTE

[12] = biological target: Peroxisome proliferator-activated receptor gamma/Nuclear receptor coactivator 2 (Homo sapiens, UniProt P37231); assay type: functional;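 also: agonist potency for raising coactivator recruitment to the receptor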
[13] = biological target: Genome polyprotein (dengue virus type 2, UniProt P29990); assay: flavivirus cap methylation enzyme inhibition – biochemical, confirmation dose response, primary screen (AID 588689); assay type: functional
[14] = cells; assay type: functional, cell-based
[15] = biological target: T5, Trace amine-associated receptor 1 (Homo sapiens, UniProt Q96RJ0); assay: Counterscreen for agonists of the human trace amine associated receptor 1 (hTAAR1): Fluorescence-based cell-based high throughput dose response assay to identify hTAAR1 agonist that also desensitize TAAR1 receptor response.; assay type: functional
T5 sequence (Q96RJ0 whole entry): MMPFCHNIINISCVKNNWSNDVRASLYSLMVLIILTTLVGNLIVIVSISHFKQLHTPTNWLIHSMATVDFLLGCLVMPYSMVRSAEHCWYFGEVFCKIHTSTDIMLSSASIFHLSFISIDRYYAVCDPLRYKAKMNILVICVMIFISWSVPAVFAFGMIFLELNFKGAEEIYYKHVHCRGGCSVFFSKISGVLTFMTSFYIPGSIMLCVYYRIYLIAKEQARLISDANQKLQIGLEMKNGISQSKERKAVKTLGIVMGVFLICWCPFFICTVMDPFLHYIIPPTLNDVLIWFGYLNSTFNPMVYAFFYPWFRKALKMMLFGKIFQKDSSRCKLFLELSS

[16] = biological target: T5, Trace amine-associated receptor 1; assay: Fluorescence-based cell-based high throughput dose response assay to identify agonists of the human trace amine associated receptor 1 (TAAR1).; assay type: functional
[17] = cells; assay type: functional, cell-based; remark: listed apart in the source
[18] = biological target: T6, Serine/threonine-protein phosphatase (Homo sapiens, UniProt Q9BPW0); assay: Counterscreen for inhibitors of PP1: fluorescence-based biochemical high throughput dose response assay to identify inhibitors of Protein Phosphatase 5 (PP5). [Related pubchem assays: 2034 (Summary (PP5 inhibitors)), 1987 (PP5 inhibitors in singlate), 2235 (PP1 inhibitors in singlate)]
T6 sequence (Q9BPW0 whole entry): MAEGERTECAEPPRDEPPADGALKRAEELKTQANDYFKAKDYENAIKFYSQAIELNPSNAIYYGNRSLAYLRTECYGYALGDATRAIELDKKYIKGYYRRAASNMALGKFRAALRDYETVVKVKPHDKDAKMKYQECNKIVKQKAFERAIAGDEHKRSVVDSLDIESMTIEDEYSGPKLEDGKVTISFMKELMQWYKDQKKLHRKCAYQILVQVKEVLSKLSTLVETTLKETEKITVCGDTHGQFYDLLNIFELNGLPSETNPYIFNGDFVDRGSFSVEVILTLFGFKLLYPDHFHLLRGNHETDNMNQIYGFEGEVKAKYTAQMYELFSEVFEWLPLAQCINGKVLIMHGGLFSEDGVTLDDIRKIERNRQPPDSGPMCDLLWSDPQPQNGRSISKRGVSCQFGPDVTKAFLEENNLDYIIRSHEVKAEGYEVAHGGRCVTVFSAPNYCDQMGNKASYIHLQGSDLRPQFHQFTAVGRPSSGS

[19] = biological target: Serine/threonine-protein phosphatase PP1-alpha catalytic subunit (Homo sapiens, UniProt P62136); assay: inhibition of protein phosphatase 1 activity – biochemical, fluorescence, dose response (AID 2403);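 also: phosphatase turnover of OMFP into fluorescent 3-O-methylfluorescein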
Serine/threonine-protein phosphatase PP1-alpha catalytic subunit, sequence (P62136 whole entry): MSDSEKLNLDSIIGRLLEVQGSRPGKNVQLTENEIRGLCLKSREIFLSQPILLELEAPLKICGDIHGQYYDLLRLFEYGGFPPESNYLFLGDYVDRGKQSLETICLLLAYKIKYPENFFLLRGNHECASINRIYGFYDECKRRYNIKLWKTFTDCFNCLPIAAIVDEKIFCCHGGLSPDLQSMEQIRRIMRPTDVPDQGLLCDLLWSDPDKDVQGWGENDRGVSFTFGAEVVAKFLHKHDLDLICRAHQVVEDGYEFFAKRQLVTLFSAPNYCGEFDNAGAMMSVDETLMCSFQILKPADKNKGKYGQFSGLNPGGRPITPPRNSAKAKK

Cc1cc(F)ccc1NCC(=O)Nc1ccc(Br)cc1C
CC50 [1]: > 40 µM (active)

COc1ccccc1-c1nc2ccccc2c(=O)n1NC(=O)c1cccs1
IC50 [2]: > 73.5 µM (not active) | IC50 [3]: > 59.6 µM (not active) | IC50 [4]: 15.8 µM (active)

Cc1cc(C)c(-n2c(C)cc(/C=C3/NC(=O)NC3=O)c2C)c(C)c1
CC50 [5]: 11.2 µM (active) | IC50 [6]: 2.83 µM (active)

COCCN(C(=O)CSc1nnc(-c2ccc(C)c(C)c2)o1)c1c(N)n(CC(C)C)c(=O)[nH]c1=O
IC50 [6]: 13.3 µM (active) | IC50 [7]: 14.8 µM (active)

COc1ccc(CN(CCC#N)C(=S)NC(=O)c2ccccc2)cc1
CC50 [1]: 39 µM (active) | AC50 [8]: 25.1 µM (inconclusive)

CCc1ccc(NC(=O)C2CC=CCC2C(=O)O)cc1 (stereo unspecified)
IC50 [2]: > 73.5 µM (not active) | IC50 [3]: > 59.6 µM (not active) | IC50 [9]: 3.48 µM (active)

Cc1sc2nc3c(SC(C)C(=O)O)cc(C(=O)c4ccccc4O)cn3c(=O)c2c1C (stereo unspecified)
CC50 [5]: 42.7 µM (active) | IC50 [6]: 41.5 µM (active) | EC50 [10]: 25.9 µM (not active) | EC50 [11]: 14.7 µM (not active) | EC50 [12]: 25.1 µM (not active) | IC50 [4]: 57.8 µM (active)

CCOC(=O)c1c(NC(=O)C2C3C=CC(C3)C2C(=O)O)sc2c1CCC(CC)C2 (stereo unspecified)
IC50 [2]: > 73.5 µM (not active) | IC50 [3]: > 59.6 µM (not active) | IC50 [7]: 1.91 µM (active) | IC50 [9]: 7.67 µM (active) | IC50 [13]: 42.4 µM (active)

CCn1cc(C(=O)O)c(=O)c2cc(F)c(N/N=C/c3ccccc3)cc21
CC50 [1]: 34.1 µM (active) | EC50 [14]: > 29.9 µM (inactive) | IC50 [15]: 1.68 µM (active) | EC50 [16]: 19.7 µM (inactive) | IC50 [17]: > 29.9 µM (inactive)

O=C1Nc2ccccc2N2CCCC12 (stereo unspecified)
IC50 [18]: > 2.48 µM (active) | IC50 [19]: > 67 µM (not active)
